Laboratory results reported in patent publication US12503452B2 (Curza Global, LLC, priority 2019, dated 2025).
Counter-ions that a name gives are not always drawn. Like-named read-outs stand apart in the source and are kept apart here.

How the values were obtained:
[1] = tested on: E. coli S30 extract (bacterial protein synthesis); test: E. coli S30 extract coupled transcription-translation luciferase assay (inhibition of bacterial protein synthesis); format: biochemical; conditions: read-out: S30 IC50 (μM/% inhib.)
Outline: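 Cell-free coupled transcription-translation in E. coli S30 circular-DNA extract, with pBESTluc plasmid as template and complete amino acid mix. Eight 2-fold compound dilutions were incubated with the extract 1 h at 37 °C, chilled, then luciferase luminescence was read. % inhibition was taken relative to no-inhibitor wells; no-DNA wells gave background.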

[2] = tested on: S. aureus (Sa); test: Broth microdilution minimum inhibitory concentration (MIC); format: cell-based; conditions: Staphylococcus aureus, read-out: Sa + bicarb MIC
Outline: (§1)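 CLSI broth microdilution (M07-A9, slightly modified) in CAMHB, optionally with 6.25 or 25 mM sodium bicarbonate or 0–50% heat-inactivated human serum. Two-fold serial dilutions (8 concentrations, triplicate) were inoculated at 5×10^4 CFU/well from 0.5 McFarland cultures grown at 35±2 °C.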

[3] = tested on: P. aeruginosa (Pa); test: as above; format: cell-based; conditions: Pseudomonas aeruginosa, read-out: Pa MIC + bicarb
Outline: as §1

[4] = tested on: E. coli (Ec); test: as above; format: cell-based; conditions: Escherichia coli, read-out: E. coli + bicarb MIC
Outline: as §1

[5] = tested on: E. faecalis (Ef); test: as above; format: cell-based; conditions: Enterococcus faecalis, read-out: Ef + bicarb MIC
Outline: as §1

[6] = tested on: A. baumannii (Ab); test: as above; format: cell-based; conditions: Acinetobacter baumannii, read-out: Ab + bicarb MIC
Outline: as §1

[7] = biological target: Rabbit Reticulocyte Lysate (eukaryotic protein synthesis); test: Rabbit reticulocyte lysate luciferase assay (inhibition of eukaryotic protein synthesis); format: biochemical; conditions: read-out: Rabbit reticulocyte IC50 (μM/% inhib.)
Outline: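 Nuclease-treated rabbit reticulocyte lysate translating luciferase control RNA, with complete amino acids, was incubated at 30° C. for 90 minutes with 2-fold serial compound dilutions. Luminescence was measured after adding luciferase reagent. % inhibition was relative to water controls, with no-RNA wells as background.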

[8] = class by IC50 or % inhibition @ 1 μM
[9] = S. aureus, growth medium with sodium bicarbonate
[10] = P. aeruginosa, growth medium with sodium bicarbonate
[11] = E. coli, growth medium with sodium bicarbonate
[12] = E. faecalis, growth medium with sodium bicarbonate
[13] = A. baumannii, growth medium with sodium bicarbonate
[14] = S. aureus, growth medium supplemented with sodium bicarbonate
[15] = P. aeruginosa, growth medium supplemented with sodium bicarbonate
[16] = E. coli, growth medium supplemented with sodium bicarbonate
[17] = E. faecalis, growth medium supplemented with sodium bicarbonate
[18] = A. baumannii, growth medium supplemented with sodium bicarbonate

Q: With `NCC1CN(C(=O)Nc2ccn(-c3ccc(CCN4CCCC(N)CC4)cc3)c(=O)n2)C1` (stereo not shown) [Compound 194] as the compound, how does the IC50 [1, 8] read?
A: 0.5 to 1 µM

Q: What about the MIC [2, 9] of the same compound?
A: > 32 µg/mL

Q: What about the MIC [3, 10] of the same compound?
A: > 32 µg/mL

Q: What about the MIC [4, 11] of the same compound?
A: < 8 µg/mL

Q: What about the MIC [5, 12] of the same compound?
A: > 32 µg/mL

Q: What about the MIC [6, 13] of the same compound?
A: > 32 µg/mL

Q: And the IC50 [7, 8]?
A: > 1 µM

Q: How did the IC50 [1, 8] turn out when `Cc1cc(NC(=O)N2CCN(C(=O)C(C)(C)N)CC2)nc(=O)n1-c1ccc(CN2CCC(N)CC2)cc1` [Compound 292, hydrochloride salt] was run?
A: > 1 µM

Q: And the MIC [2]?
A: > 32 µg/mL

Q: What about the MIC [3] of the same compound?
A: > 32 µg/mL

Q: What about the MIC [4] of the same compound?
A: > 32 µg/mL

Q: And the MIC [5]?
A: > 32 µg/mL

Q: What about the MIC [6] of the same compound?
A: > 32 µg/mL

Q: And the IC50 [7, 8]?
A: > 1 µM

Q: Which IC50 [1, 8] does the source give for `CN(Cc1ccc(-n2ccc(NC(=O)N3CCN(C(=O)C(C)(C)N)CC3)nc2=O)cc1Cl)C1CCC(N)CC1` (stereo not shown) [Compound 272] here?
A: < 0.5 µM

Q: And the MIC [2, 9]?
A: < 8 µg/mL

Q: And the MIC [3, 10]?
A: 8 to 32 µg/mL

Q: And the MIC [4, 11]?
A: < 8 µg/mL

Q: What about the MIC [5, 12] of the same compound?
A: < 8 µg/mL

Q: And the MIC [6, 13]?
A: < 8 µg/mL

Q: What about the IC50 [7, 8] of the same compound?
A: > 1 µM

Q: `CC(C)(N)C(=O)N1CCN(C(=O)Nc2ccn(-c3ccc(C(N)C(=O)N4CC(N)C4)cc3)c(=O)n2)CC1` (stereo not shown) [Compound 144] was tested. Which IC50 [1, 8] did it give?
A: > 1 µM

Q: And the MIC [2, 14]?
A: > 32 µg/mL

Q: What about the MIC [3, 15] of the same compound?
A: > 32 µg/mL

Q: And the MIC [4, 16]?
A: > 32 µg/mL

Q: What about the MIC [5, 17] of the same compound?
A: > 32 µg/mL

Q: And the MIC [6, 18]?
A: > 32 µg/mL

Q: What about the IC50 [7, 8] of the same compound?
A: > 1 µM

Q: Which results are given for `CC(C)(N)C(=O)N1CCN(C(=O)Nc2ccn(-c3ccc(CCCN4CCCC(N)CC4)cc3)c(=O)n2)CC1` (stereo not shown) [Compound 31]?
A: IC50 [1, 8]: < 0.5 µM; MIC [2, 14]: < 8 µg/mL; MIC [3, 15]: > 32 µg/mL; MIC [4, 16]: < 8 µg/mL; MIC [5, 17]: 8 to 32 µg/mL; MIC [6, 18]: > 32 µg/mL; IC50 [7, 8]: > 1 µM

Q: `Cc1cc(-n2ccc(NC(=O)N3CCN(C(=O)C(C)(C)N)CC3)nc2=O)ccc1CNC1CCC(N)CC1` (stereo not shown) [Compound 283] was tested. Which IC50 [1, 8] did it give?
A: < 0.5 µM

Q: And the MIC [2, 9]?
A: < 8 µg/mL

Q: What about the MIC [3, 10] of the same compound?
A: > 32 µg/mL

Q: What about the MIC [4, 11] of the same compound?
A: < 8 µg/mL

Q: And the MIC [5, 12]?
A: < 8 µg/mL

Q: And the MIC [6, 13]?
A: > 32 µg/mL

Q: What about the IC50 [7, 8] of the same compound?
A: > 1 µM

Q: For `CC(C)(N)C(=O)N1CCN(C(=O)Nc2ccn(-c3ccc(CN(CCF)[C@H]4CC[C@H](N)CC4)cc3)c(=O)n2)CC1` [Compound 138], which IC50 [1, 8] is on record?
A: 0.5 to 1 µM

Q: What about the MIC [2, 14] of the same compound?
A: < 8 µg/mL

Q: And the MIC [3, 15]?
A: > 32 µg/mL

Q: What about the MIC [4, 16] of the same compound?
A: < 8 µg/mL

Q: What about the MIC [5, 17] of the same compound?
A: > 32 µg/mL

Q: What about the MIC [6, 18] of the same compound?
A: > 32 µg/mL

Q: And the IC50 [7, 8]?
A: > 1 µM

Q: With `CC(C)(N)C(=O)N1CCN(C(=O)Nc2ccn(-c3cc(F)c(CN[C@H]4CC[C@H](N)CC4)c(F)c3)c(=O)n2)CC1` [Compound 353, hydrochloride salt] as the compound, how does the IC50 ([1]; % inhibition @ 1 μM) read?
A: < 0.5 µM

Q: What about the MIC [2] of the same compound?
A: 8 to 32 µg/mL

Q: What about the MIC [3] of the same compound?
A: > 32 µg/mL

Q: And the MIC [4]?
A: < 8 µg/mL

Q: And the MIC [5]?
A: > 32 µg/mL

Q: And the MIC [6]?
A: > 32 µg/mL

Q: What about the IC50 ([7]; % inhibition @ 1 μM) of the same compound?
A: > 1 µM

Q: Which IC50 [1, 8] does the source give for `CC(Cc1ccc(-n2ccc(NC(=O)N3CCN(C(=O)C(C)(C)N)CC3)nc2=O)cc1)N[C@H]1CC[C@H](N)C1` (stereo partly shown) [Compound 162] here?
A: < 0.5 µM

Q: What about the MIC [2, 14] of the same compound?
A: < 8 µg/mL

Q: What about the MIC [3, 15] of the same compound?
A: > 32 µg/mL

Q: And the MIC [4, 16]?
A: < 8 µg/mL

Q: What about the MIC [5, 17] of the same compound?
A: 8 to 32 µg/mL

Q: And the MIC [6, 18]?
A: > 32 µg/mL

Q: And the IC50 [7, 8]?
A: > 1 µM

Q: For `CCN(Cc1ccc(-n2ccc(NC(=O)N3CCN(C(=O)[C@H](C)N)CC3)nc2=O)cc1)C1CCC(N)CC1` (stereo partly shown) [Compound 357], which IC50 ([1]; % inhibition @ 1 μM) is on record?
A: < 0.5 µM

Q: What about the MIC [2, 9] of the same compound?
A: < 8 µg/mL

Q: And the MIC [3, 10]?
A: > 32 µg/mL

Q: What about the MIC [4, 11] of the same compound?
A: < 8 µg/mL

Q: And the MIC [5, 12]?
A: 8 to 32 µg/mL

Q: And the MIC [6, 13]?
A: > 32 µg/mL

Q: And the IC50 ([7]; % inhibition @ 1 μM)?
A: > 1 µM

Q: Which results are given for `CN(Cc1ccc(-n2ccc(NC(=O)N3CCN(C(=O)C(C)(C)N)CC3)nc2=O)cc1)CC1CC(N)C1` (stereo not shown) [Compound 127]?
A: IC50 [1, 8]: < 0.5 µM; MIC [2, 14]: < 8 µg/mL; MIC [3, 15]: > 32 µg/mL; MIC [4, 16]: < 8 µg/mL; MIC [5, 17]: < 8 µg/mL; MIC [6, 18]: > 32 µg/mL; IC50 [7, 8]: > 1 µM

Q: With `CC(COc1ccc(-n2ccc(NC(=O)N3CCN(C(=O)C(C)(C)N)CC3)nc2=O)cc1)N1CCCC(N)CC1` (stereo not shown) [Compound 191] as the compound, how does the IC50 [1, 8] read?
A: 0.5 to 1 µM

Q: What about the MIC [2, 9] of the same compound?
A: < 8 µg/mL

Q: What about the MIC [3, 10] of the same compound?
A: > 32 µg/mL

Q: What about the MIC [4, 11] of the same compound?
A: < 8 µg/mL

Q: What about the MIC [5, 12] of the same compound?
A: 8 to 32 µg/mL

Q: What about the MIC [6, 13] of the same compound?
A: > 32 µg/mL

Q: And the IC50 [7, 8]?
A: > 1 µM

Q: For `CCN(C(C)Cc1ccc(-n2ccc(NC(=O)N3CCN(C(=O)C(C)(C)N)CC3)nc2=O)cc1)[C@H]1CC[C@H](N)C1` (stereo partly shown) [Compound 164], which IC50 [1, 8] is on record?
A: < 0.5 µM

Q: And the MIC [2, 9]?
A: < 8 µg/mL

Q: What about the MIC [3, 10] of the same compound?
A: > 32 µg/mL

Q: What about the MIC [4, 11] of the same compound?
A: < 8 µg/mL

Q: What about the MIC [5, 12] of the same compound?
A: < 8 µg/mL

Q: And the MIC [6, 13]?
A: 8 to 32 µg/mL

Q: And the IC50 [7, 8]?
A: > 1 µM
